Results on 14 compounds are retold here after US8349851B2, “JAK kinase modulating compounds and methods of use thereof” (Ambit Biosciences Corp., priority 2009, dated 2013).

Where two headings read alike, the source gives them in different places.

Assay [1] relates to csTF-1 cells (GM-CSFR/JAK2/STAT5 pathway). In words: csTF-1 cell-based reporter assay. On the set-up: species or system human. The conditions noted are these: GM-CSF at 2 ng/mL, 4 hours, read-out: Cell Assay: CS0017: CS TF-1 reporter assay: IC50. The essentials:
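GM-CSF-dependent human csTF-1 cells with STAT5-driven beta-lactamase reporter (irf1 element), 2×10^5 cells/well, given serial compound dilutions plus 2 ng/mL GM-CSF in 0.5% DMSO for 4 hours at 30° C. Substrate added 2 h at room temperature; blue (460 nm)/green (530 nm) fluorescence read at 409 nm excitation.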
On the technique in general: A reporter such as luciferase makes a cellular process visible.

A further assay concerns the target T1, JAK3 (Homo sapiens, UniProt P52333).
T1 construct: made in house
The assay can be described thus: Competition binding assay, JAK3. Particulars: read-out: Binding Assay: JAK3 (active_KD, ENZ). In a few lines:
(§1)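 JAK2 and JAK3 were each tested individually as T7 phage fusions or HEK-293-expressed DNA-tagged kinases, competing with compound for bead-immobilized biotinylated ligand. Eluted kinase was measured by quantitative PCR. Kd values came from eleven serial threefold dilutions.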

The target of another assay is T2, JAK2 (Homo sapiens, UniProt O60674).
T2 construct: made in house
T2 sequence (O60674 849-1124 limits assumed): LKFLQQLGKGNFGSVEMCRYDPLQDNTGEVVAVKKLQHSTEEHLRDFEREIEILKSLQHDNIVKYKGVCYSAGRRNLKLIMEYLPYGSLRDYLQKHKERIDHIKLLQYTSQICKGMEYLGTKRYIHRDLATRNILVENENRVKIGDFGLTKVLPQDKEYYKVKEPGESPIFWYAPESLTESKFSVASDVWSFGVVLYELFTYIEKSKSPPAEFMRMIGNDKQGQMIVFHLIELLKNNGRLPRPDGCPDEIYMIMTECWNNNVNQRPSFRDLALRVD
The assay can be described thus: Competition binding assay, JAK2. The conditions noted are these: read-out: Binding Assay: JAK2 (active_KD). In a few lines: as §1

The target in the next assay is T3, AuroraB (Homo sapiens, UniProt Q96GD4).
T3 construct: made in house
T3 sequence (Q96GD4 whole entry): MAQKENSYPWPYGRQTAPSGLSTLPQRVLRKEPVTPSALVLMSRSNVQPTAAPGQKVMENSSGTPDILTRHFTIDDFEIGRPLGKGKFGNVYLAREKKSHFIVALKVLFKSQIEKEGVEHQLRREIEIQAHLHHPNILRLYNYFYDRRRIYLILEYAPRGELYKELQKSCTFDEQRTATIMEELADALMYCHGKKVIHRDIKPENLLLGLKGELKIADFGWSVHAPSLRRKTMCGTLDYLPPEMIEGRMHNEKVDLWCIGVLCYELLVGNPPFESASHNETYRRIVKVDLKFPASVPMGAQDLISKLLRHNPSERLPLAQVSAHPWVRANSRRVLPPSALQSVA
In words: Competition binding assay, Aurora B. An excerpt: Methods for determining binding constant against Aurora B kinase are known to one of skill in the art. Exemplary methods are described in U.S. provisional application No. 61/294,413, and Fabian et al., Nature Biotechnology 2005, 23,329-336.
Competition binding assays used herein were developed, validated and performed as described in Fabian et al., Nature Biotechnology 2005, 23,329-336. Kinases were produced as fusions to T7 phage (See, Fabian et al. or WO04/015142) or alternatively, the kinases were expressed in HEK-293 cells and subsequently tagged with DNA for PCR detection (See, WO08/005310). For the binding assays, streptavidin-coated magnetic beads were treated with biotinylated affinity ligands for 30 min at rt to generate affinity resins. The liganded beads were blocked with excess biotin and washed with blocking buffer (SeaBlock (Pierce), 1% BSA, 0.05% Tween 20, 1 mM DTT) to remove unbound ligand and to reduce non-specific binding. […] Test compounds were prepared as 100× stocks in DMSO and rapidly diluted into the aqueous environment. DMSO was added to control assays lacking a test compound. Primary screen interactions were performed in polypropylene 384-well plates in a final volume of 34 μL, while Kd determinations were performed in polystyrene 96-well plates in a final volume of 135 μL. […] The kinase concentration in the eluates was measured by quantitative PCR. Each kinase was tested individually against each compound. Kds were determined using eleven serial threefold dilutions. A selectivity score, which is a quantitative measure of selectivity of a compound against a panel of enzymes, may be calculated for a compound by dividing the number of enzymes for which a compound meets a set criteria, (for example, a binding constant of 100 nM or less), by the total number of enzymes tested.

For a further assay, the system named is TEL-JAK cells. The assay can be described thus: In vivo efficacy study in the mouse TELJAK model (survival). Particulars: CB17 SCID mice, BID for two weeks; Ambit Internal Compound 50 mg/kg BID, TGEN101348 100 mg/kg BID. The method, then: In Vivo Efficacy Study in the Mouse TELJAK Mouse Model
This study was conducted to determine the effect of a selected compound of Formula I on tumor progression and survival. CB17 SCID mice (Harlan Laboratories) were inoculated with 5e5 TEL-JAK cells via tail vein on day 0. Cells were allowed to establish in the animal, and on day 3, dosing was initiated as follows: Vehicle (Pharmatek #6) administered 50 uL at BID to a first group, Ambit Internal Compound prepared in Pharmatek #6 and administered at 50 mg/kg BID to a second group and TGEN101348 prepared in Pharmatek #6 to a third group at 100 mg/kg BID. Each treatment group (16 animals per group) received a twice daily dosing for a two week period. An untreated group of 10 animals also served as control.
A second study was conducted using the same protocol, with the same controls and the following treatment groups: Ambit Internal Compound A prepared in Pharmatek #6 administered at 60 mg/kg BID and a selected compound of Formula I prepared in Pharmatek #6 at 60 mg/kg BID.

The subject of a further assay is HEL 92.1.7 cells. In words: In vivo efficacy study in the mouse HELV617F liquid tumor model (survival). Particulars: CB17 SCID mice, PO BID, 21 day dosing; Ambit Internal Compound 50 or 60 mg/kg, compound of Formula I 60 mg/kg, TGEN101348 120 mg/kg. The method, then:
In Vivo Efficacy Study in the Mouse HELV617F Liquid Tumor Mouse Model
This study was conducted to determine the effect of a selected compound of Formula I on tumor progression and survival. CB 17 SCID mice (Charles River Labs) were pretreated with cyclophosphamide IP QD at 150 mg/kg for two consecutive days before being injected with cells. On Day 0, 75 mice were inoculated IV with 5e6 HEL 92.1.7 cells suspended in sterile saline. Animals were weighed on Day 8, and assigned to groups with similar mean body weights and similar standard deviations from the mean. Animals were dosed on Day 8 for a 21 day dosing period. Treatment groups were as follows (10 animals per group): First group was administered vehicle (Pharmatek #6), PO, BID; a second group was administered Ambit Internal Compound A prepared in Pharmatek #6, at 50 mg/kg PO, BID; and a third group was administered TGEN101348 prepared in Pharmatek #6, at 120 mg/kg PO, BID. An untreated group of 10 animals also served as control.
Another study was conducted using the same protocol, with the same controls and the following treatment groups: Ambit Internal Compound A prepared in Pharmatek #6 administered at 60 mg/kg BID and a selected compound of Formula I prepared in Pharmatek #6 at 60 mg/kg BID.

T1 sequence (P52333 822-1111 limits assumed): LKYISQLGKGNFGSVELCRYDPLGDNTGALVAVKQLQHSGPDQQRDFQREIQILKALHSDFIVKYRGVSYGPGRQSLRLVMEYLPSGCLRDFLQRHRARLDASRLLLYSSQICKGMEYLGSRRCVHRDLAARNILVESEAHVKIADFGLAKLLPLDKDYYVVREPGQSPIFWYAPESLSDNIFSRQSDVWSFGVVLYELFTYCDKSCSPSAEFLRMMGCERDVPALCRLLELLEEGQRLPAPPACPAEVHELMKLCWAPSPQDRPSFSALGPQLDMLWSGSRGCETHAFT

For the compound `Cc1ccc2c(Nc3cc(C)[nH]n3)nc(C(F)(F)c3ccc(F)cc3)nc2c1` [Example 26, 2-(difluoro(4-fluorophenyl)methyl)-7-methyl-N-(5-methyl-1H-pyrazol-3-yl)quinazolin-4-amine], the IC50 (usually the concentration that gives 50% inhibition) in assay [1] (Homo sapiens) was not above 100 nM. Also, the Kd on JAK3 is not above 10 nM; on JAK2, not above 1 nM; on AuroraB it was more than 200 nM.
As to `COc1ccc2c(Nc3cc[nH]n3)nc(C(=O)c3ccc(F)cc3)nc2c1` [Example 28, (4-(1H-pyrazol-3-ylamino)-7-methoxyquinazolin-2-yl)(4-fluorophenyl)methanone], the IC50 in assay [1] (Homo sapiens) is 100 to 500 nM. Further, the Kd at JAK3 was more than 100 nM; at JAK2 it was 1 to 10 nM; at AuroraB, more than 200 nM.
For `COc1ccc2c(Nc3cc(C)[nH]n3)nc(C(=O)c3ccc(F)cc3)nc2c1` [Example 30, (4-fluorophenyl)(7-methoxy-4-(5-methyl-1H-pyrazol-3-ylamino)quinazolin-2-yl)methanone] the same measures were not above 100 nM, 10 to 100 nM, 1 to 10 nM and more than 200 nM.
With `COc1ccc2c(Nc3cc(C)[nH]n3)nc(C(F)(F)c3ccc(F)cc3)nc2c1` [Example 32, 2-(difluoro(4-fluorophenyl)methyl)-7-methoxy-N-(5-methyl-1H-pyrazol-3-yl)quinazolin-4-amine], the IC50 in assay [1] (Homo sapiens) is not above 100 nM. Moreover, the Kd is 10 to 100 nM on JAK3, not above 1 nM on JAK2 and more than 200 nM on AuroraB.
Consider `COc1ccc2c(Nc3cc[nH]n3)nc(C(F)(F)c3ccc(F)cc3)nc2c1` [Example 33, 2-(difluoro(4-fluorophenyl)methyl)-7-methoxy-N-(1H-pyrazol-3-yl)quinazolin-4-amine], for which the IC50 in assay [1] (Homo sapiens) was 100 to 500 nM. Besides, the Kd on JAK3 was more than 100 nM; at JAK2, 1 to 10 nM; at AuroraB, 50 to 200 nM.
For `Cc1cc(Nc2nc(C(F)(F)c3ccc(F)cc3)nc3c(F)cccc23)n[nH]1` [Example 34, 2-(difluoro(4-fluorophenyl)methyl)-8-fluoro-N-(5-methyl-1H-pyrazol-3-yl)quinazolin-4-amine], in assay [1] (Homo sapiens), the IC50 is not above 100 nM. The figures for the Kd on JAK3, at JAK2 and on AuroraB were 10 to 100 nM, not above 1 nM and more than 200 nM, respectively.
Consider `COc1cccc2c(Nc3cc[nH]n3)nc(C(=O)c3ccc(F)cc3)nc12` [Example 35, (4-(1H-pyrazol-3-ylamino)-8-methoxyquinazolin-2-yl)(4-fluorophenyl)methanone], for which the IC50 in assay [1] (Homo sapiens) was more than 500 nM. The Kd at JAK3 is more than 100 nM; on JAK2 it was more than 10 nM; on AuroraB it was 50 to 200 nM.
As for `Cc1cc(Nc2nc(C(=O)c3ccc(F)cc3)nc3cc(O)ccc23)n[nH]1` [Example 37, (4-fluorophenyl)(7-hydroxy-4-(5-methyl-1H-pyrazol-3-ylamino)quinazolin-2-yl)methanone], the IC50 in assay [1] (Homo sapiens) is not above 100 nM. The Kd at JAK3 was 10 to 100 nM; at JAK2 it was not above 1 nM; at AuroraB, more than 200 nM.
Turning to `Cc1cc(Nc2nc(C(O)c3ccc(F)cc3)nc3cc(OC4CCNCC4)ccc23)n[nH]1` (stereo not drawn) [Example 41, (4-fluorophenyl)(4-(5-methyl-1H-pyrazol-3-ylamino)-7-(piperidin-4-yloxy)quinazolin-2-yl)methanol], in assay [1] (Homo sapiens), the IC50 was in the range of 100 to 500 nM. In addition, the Kd on JAK3 is not above 10 nM; at JAK2, not above 1 nM; at AuroraB, more than 200 nM.
As to `Cc1cc(Nc2nc(C(F)(F)c3ccc(F)cc3)nc3cc(CS(C)(=O)=O)ccc23)n[nH]1` [Example 50, 2-(difluoro(4-fluorophenyl)methyl)-N-(5-methyl-1H-pyrazol-3-yl)-7-(methylsulfonylmethyl)quinazolin-4-amine], in assay [1] (Homo sapiens), the IC50 was not above 100 nM. The Kd on JAK3 is not above 10 nM; on JAK2, not above 1 nM; on AuroraB, more than 200 nM.
Taken in the same sequence, the figures for `CCOCc1ccc2c(Nc3cc(C)[nH]n3)nc(C(F)(F)c3ccc(F)cc3)nc2c1` [Example 51, 2-(Difluoro(4-fluorophenyl)methyl)-7-(ethoxymethyl)-N-(5-methyl-1H-pyrazol-3-yl)quinazolin-4-amine] were not above 100 nM, not above 10 nM, not above 1 nM and 50 to 200 nM.
As for `Cc1cnc(Nc2ccc(OCCN3CCCC3)cc2)nc1Nc1cccc(S(=O)(=O)NC(C)(C)C)c1` [TGEN101348], the “increased life span (ILS)” value in the assay on TEL-JAK cells is 30%; with HEL 92.1.7 cells, “approximately 5%”.
With `Cc1cc(Nc2nc(C(O)(c3ccc(F)cc3)c3ccc(F)cc3)nc3ccccc23)n[nH]1` [bis-(4-fluoro-phenyl)-[4-(5-methyl-1H-pyrazol-3-ylamino)-quinazolin-2-yl]-methanol], the IC50 in assay [1] (Homo sapiens) is more than 500 nM. Besides, the figures for the Kd at JAK3, on JAK2 and at AuroraB were more than 100 nM, more than 10 nM and more than 200 nM, respectively.
In the case of “(4-(1H-pyrazol-3-ylamino)quinazolin-2-yl)bis(4-fluorophenyl)methanol [Example 48]”, the half-maximal inhibitory concentration (IC50) in assay [1] is more than 500 nM. Moreover, the Kd at JAK3 was more than 100 nM; at JAK2, more than 10 nM; at AuroraB, more than 200 nM.
